US12371454B2, “Cyclic peptide compound having Kras inhibitory action” (priority 2019, dated 2025)
Starred links: 1 amine or outer side, 2 acyl side, 3 side chain; linkers in the order of their positions; H or OH if unused. Positions of bridges follow the written chain, without caps; N, C: chain ends. Non-standard residues stand in square brackets, D forms with d. Residues, ends and D or L forms follow the SMILES beside them. *: point of attachment. hPhe(3-Cl-4-CF3) = N[C@@H](CCc1ccc(C(F)(F)F)c(Cl)c1)C(=O)O; NMePhe(4-CF3) = CN[C@@H](Cc1ccc(C(F)(F)F)cc1)C(=O)O; hPhe(4-CF3) = N[C@@H](CCc1ccc(C(F)(F)F)cc1)C(=O)O; X17 = Cc1cncc(C[C@@H](C(=O)[*:2])N(C)[*:1])c1; NMeAbu(4,4,4-F3) = CN[C@@H](CC(F)(F)F)C(=O)O; NMePhe(4-Cl) = CN[C@@H](Cc1ccc(Cl)cc1)C(=O)O; NMePhe(4-Me) = CN[C@@H](Cc1ccc(C)cc1)C(=O)O; hPhe(4-Cl) = N[C@@H](CCc1ccc(Cl)cc1)C(=O)O; NMedβ3hAla = C[C@H](CC(=O)[*:2])N(C)[*:1]; NMeGly(cPent) = CN[C@H](C(=O)O)C1CCCC1; Pro(4,4-F2) = O=C(O)[C@@H]1CC(F)(F)CN1; X70 = CC(C)(O)COCCN(CC(=O)[*:2])[*:1]; NMeY = CN[C@@H](Cc1ccc(O)cc1)C(=O)O; NMeCha = CN[C@@H](CC1CCCCC1)C(=O)O; Nva(3-Et) = CCC(CC)[C@H](N)C(=O)O; Hyp = O=C(O)[C@@H]1C[C@@H](O)CN1; NMeChg = CN[C@H](C(=O)O)C1CCCCC1; NMeI = CC[C@H](C)[C@H](NC)C(=O)O; NMeD = CN[C@@H](CC(=O)O)C(=O)O; NMeL = CN[C@@H](CC(C)C)C(=O)O; NMeNva = CCC[C@H](NC)C(=O)O; NMeV = CN[C@H](C(=O)O)C(C)C; d(β3hA) = C[C@@H](N)CC(=O)O; NMeS = CN[C@@H](CO)C(=O)O; Pip = O=C(O)[C@@H]1CCCCN1; NMeA = CN[C@@H](C)C(=O)O; Piperidide = C1CCN(*)CC1; Pyrrolidide = C1CCN(*)C1; dNMeA = CN[C@H](C)C(=O)O; Ac5c = NC1(C(=O)O)CCCC1; Aze = O=C(O)[C@@H]1CCN1; Ac4c = NC1(C(=O)O)CCC1; Sar = CNCC(=O)O

Molecular target: T1, Kras and SOS1 (biotin-tagged human Kras loaded with GDP, His-tagged human SOS1) (Homo sapiens, UniProt P01116, G12D)
T1 construct: made in house; host or cells: E. coli (stated for Kras only)
T1 sequence (P01116 1-188 isoform P01116-2 G12D): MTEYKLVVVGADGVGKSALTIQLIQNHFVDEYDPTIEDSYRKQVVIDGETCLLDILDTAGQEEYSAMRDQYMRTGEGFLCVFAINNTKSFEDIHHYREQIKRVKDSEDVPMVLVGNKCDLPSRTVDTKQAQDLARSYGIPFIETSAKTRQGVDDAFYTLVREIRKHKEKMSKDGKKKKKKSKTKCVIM
Assay: Protein-protein interaction inhibition between Kras and SOS1 (KrasGl2D-SOS PPI) using AlphaScreen
Type: binding
Details: AlphaScreen; biotin-tagged human Kras loaded with GDP, His-tagged human SOS1; read-out: KRAS G12D-SOS PPI IC50
In short: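 AlphaScreen format: Ni donor beads capture His-SOS1, streptavidin acceptor beads capture biotinylated Kras (E. coli-expressed, GDP-loaded post-purification). Excite 680 nm, read 520-620 nm.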

In order of rising IC50:
1. CCC[C@H]1C(=O)N[C@@H]([C@@H](C)CC)C(=O)N(C)CC(=O)N(C)CC(=O)N(C)[C@@H](CC2CCCCC2)C(=O)N(C)CC(=O)N[C@@H](CCc2ccc(C(F)(F)F)c(Cl)c2)C(=O)N2CCC[C@H]2C(=O)NC2(CCCC2)C(=O)N(C)[C@@H](C2CCCCC2)C(=O)N(C)[C@H](C(=O)N2CCCC2)CC(=O)N1C [Compound 2001] ([NMeNva]I[Sar][Sar][NMeCha][Sar][hPhe(3-Cl-4-CF3)]P[Ac5c][NMeChg][NMeD]-Pyrrolidide; lactam N-11)  0.48 nM
2. CCO[C@@H]1C[C@H]2C(=O)NC3(CCCC3)C(=O)N(C)[C@@H](C3CCCCC3)C(=O)N(C)[C@H](C(=O)N3CCCC3)CC(=O)N(C)[C@@H](CC(F)(F)F)C(=O)N[C@@H]([C@@H](C)CC)C(=O)N(C)CC(=O)N(C)CC(=O)N(C)[C@@H](Cc3ccc(C(F)(F)F)cc3)C(=O)N(C)CC(=O)N[C@@H](CCc3ccc(C(F)(F)F)c(Cl)c3)C(=O)N2C1 [Compound 1139] ([NMeAbu(4,4,4-F3)]I[Sar][Sar][NMePhe(4-CF3)][Sar][hPhe(3-Cl-4-CF3)][Hyp](Et)[Ac5c][NMeChg][NMeD]-Pyrrolidide; lactam N-11)  0.59 nM
3. CC[C@H](C)[C@@H]1NC(=O)[C@H](COC)N(C)C(=O)C[C@@H](C(=O)N2CCCCC2)N(C)C(=O)[C@H](C(C)C)N(C)C(=O)C2(CCCC2)NC(=O)[C@@H]2CCCN2C(=O)[C@H](CCc2ccc(C(F)(F)F)c(Cl)c2)NC(=O)CN(C)C(=O)[C@H](CC2CCCCC2)N(C)C(=O)[C@@H]2CCN2C(=O)[C@H](C)N(C)C1=O [Compound 636] ([NMeS](Me)I[NMeA][Aze][NMeCha][Sar][hPhe(3-Cl-4-CF3)]P[Ac5c][NMeV][NMeD]-Piperidide; lactam N-11)  1.1 nM
4. CC[C@H](C)[C@@H]1NC(=O)[C@H](CC(C)C)N(C)C(=O)C[C@@H](C(=O)N(C)C)N(C)C(=O)[C@H]([C@@H](C)CC)N(C)C(=O)C2(CCCC2)NC(=O)CN(CCOCC(C)(C)O)C(=O)[C@H](CCc2ccc(C(F)(F)F)c(Cl)c2)NC(=O)CN(C)C(=O)[C@H](CC2CCCCC2)N(C)C(=O)[C@@H]2CCN2C(=O)[C@H](C)N(C)C1=O [Compound 2028] ([NMeL]I[NMeA][Aze][NMeCha][Sar][hPhe(3-Cl-4-CF3)][X70][Ac5c][NMeI][NMeD]-NMe2; lactam N-11)  11 nM
5. CC[C@H](C)[C@@H]1NC(=O)[C@H](CC(C)C)N(C)C(=O)C[C@@H](C(=O)N(C)C)N(C)C(=O)[C@H]([C@@H](C)CC)N(C)C(=O)C2(CCCC2)NC(=O)[C@H](Cc2ccc(OC)cc2)N(C)C(=O)[C@H](CCc2ccc(C(F)(F)F)c(Cl)c2)NC(=O)CN(C)C(=O)[C@H](Cc2ccc(C)cc2)N(C)C(=O)[C@@H]2CCN2C(=O)[C@H](C)N(C)C1=O [Compound 1935] ([NMeL]I[NMeA][Aze][NMePhe(4-Me)][Sar][hPhe(3-Cl-4-CF3)][NMeY](Me)[Ac5c][NMeI][NMeD]-NMe2; lactam N-11)  11 nM
6. CC[C@H](C)[C@@H]1NC(=O)[C@H](CC(C)C)N(C)C(=O)C[C@@H](C)N(C)C(=O)[C@H](C2CCCCC2)N(C)C(=O)C2(CCC2)NC(=O)[C@@H]2CC(F)(F)CN2C(=O)[C@H](CCc2ccc(C(F)(F)F)c(Cl)c2)NC(=O)CN(C)C(=O)[C@H](CC2CCCCC2)N(C)C(=O)CN(C)C(=O)CN(C)C1=O [Compound 241] (cyclo([Ac4c][NMeChg][NMedβ3hAla][NMeL]I[Sar][Sar][NMeCha][Sar][hPhe(3-Cl-4-CF3)][Pro(4,4-F2)]))  18 nM
7. CC[C@H](C)[C@@H]1NC(=O)[C@@H]2CCCCN2C(=O)C[C@@H](C(=O)N2CCCCC2)N(C)C(=O)[C@H](C(C)C)N(C)C(=O)C2(CCCC2)NC(=O)[C@@H]2CCCN2C(=O)[C@H](CCc2ccc(Cl)cc2)NC(=O)CN(C)C(=O)[C@H](CC2CCCCC2)N(C)C(=O)CN(C)C(=O)CN(C)C1=O [Compound 841] ([Pip]I[Sar][Sar][NMeCha][Sar][hPhe(4-Cl)]P[Ac5c][NMeV][NMeD]-Piperidide; lactam N-11)  24 nM
8. CC[C@H](C)[C@@H]1NC(=O)[C@H](C)N(C)C(=O)C[C@@H](C)NC(=O)[C@H](C2CCCC2)N(C)C(=O)C2(CCCC2)NC(=O)[C@@H]2CCCN2C(=O)[C@H](CCc2ccc(C(F)(F)F)c(Cl)c2)NC(=O)[C@@H](C)N(C)C(=O)[C@H](CC(C)C)N(C)C(=O)[C@@H]2CCN2C(=O)[C@H](C)N(C)C1=O [Compound 98] (cyclo([Ac5c][NMeGly(cPent)][d(β3hA)][NMeA]I[NMeA][Aze][NMeL][dNMeA][hPhe(3-Cl-4-CF3)]P))  68 nM
9. CC[C@H](C)[C@@H]1NC(=O)[C@H](CC(C)C)N(C)C(=O)C[C@@H](C(=O)N2CCCCC2)N(C)C(=O)[C@H](C2CCCCC2)N(C)C(=O)C2(CCCC2)NC(=O)[C@H](Cc2ccc(OC)cc2)N(C)C(=O)[C@H](CCc2ccc(C(F)(F)F)c(Cl)c2)NC(=O)CN(C)C(=O)[C@H](CC2CCCCC2)N(C)C(=O)CN(C)C(=O)CN(C)C1=O [Compound 2171] ([NMeL]I[Sar][Sar][NMeCha][Sar][hPhe(3-Cl-4-CF3)][NMeY](Me)[Ac5c][NMeChg][NMeD]-Piperidide; lactam N-11)  120 nM
10. CC[C@H](C)[C@@H]1NC(=O)[C@H](C)N(C)C(=O)C[C@@H](C)NC(=O)[C@H](CC(C)C)N(C)C(=O)[C@H](CC(C)C)N(C)C(=O)[C@@H]2CCCN2C(=O)[C@H](CCc2ccc(C(F)(F)F)cc2)NC(=O)CN(C)C(=O)[C@H](Cc2ccc(Cl)cc2)N(C)C(=O)CN(C)C(=O)CN(C)C1=O [Compound 902] (cyclo(I[Sar][Sar][NMePhe(4-Cl)][Sar][hPhe(4-CF3)]P[NMeL][NMeL][d(β3hA)][NMeA]))  140 nM
11. CC[C@H](C)[C@@H]1NC(=O)[C@H](CC(C)C)N(C)C(=O)C[C@@H](C(=O)N2CCCCC2)N(C)C(=O)[C@H](C2CCCCC2)N(C)C(=O)C2(CCCC2)NC(=O)[C@H](Cc2cncc(C)c2)N(C)C(=O)[C@H](CCc2ccc(C(F)(F)F)c(Cl)c2)NC(=O)CN(C)C(=O)[C@H](CC2CCCCC2)N(C)C(=O)[C@@H]2CCN2C(=O)[C@H](C)N(C)C1=O [Compound 338] ([NMeL]I[NMeA][Aze][NMeCha][Sar][hPhe(3-Cl-4-CF3)][X17][Ac5c][NMeChg][NMeD]-Piperidide; lactam N-11)  220 nM
12. CC[C@H](C)[C@@H]1NC(=O)[C@H](CC(C)C)N(C)C(=O)C[C@@H](C)NC(=O)[C@H](C(C)C)N(C)C(=O)C2(CCCC2)NC(=O)[C@@H]2CCCN2C(=O)[C@H](CCc2ccc(Cl)cc2)NC(=O)CN(C)C(=O)[C@H](CC2CCCCC2)N(C)C(=O)CN(C)C(=O)CN(C)C1=O [Compound 576] (cyclo([Ac5c][NMeV][d(β3hA)][NMeL]I[Sar][Sar][NMeCha][Sar][hPhe(4-Cl)]P))  230 nM
13. CCC(CC)[C@@H]1NC(=O)[C@H](CC(C)C)N(C)C(=O)C[C@@H](C(=O)N(C)C)N(C)C(=O)[C@H]([C@@H](C)CC)N(C)C(=O)CNC(=O)[C@@H]2CCCN2C(=O)[C@H](CCc2ccc(C(F)(F)F)c(Cl)c2)NC(=O)CN(C)C(=O)[C@H](Cc2ccc(C)cc2)N(C)C(=O)[C@@H]2CCN2C(=O)[C@H](C)N(C)C1=O [Compound 193] ([NMeL][Nva(3-Et)][NMeA][Aze][NMePhe(4-Me)][Sar][hPhe(3-Cl-4-CF3)]PG[NMeI][NMeD]-NMe2; lactam N-11)  420 nM
